Source: patent US20090107495A1, “DEVICE FOR INHALATION OF MEDICINE” (NATIONAL INSTITUTE FOR MATERIALS SCIENCE, priority 2005, published 2009)

What was measured:
Assay type in all cases: physicochemical
Solubility in ethanol = experiment: Solubility in ethanol
[1] = Particle size of creatine adhered on PVP nano fiber, by scanning electron microscope; conditions: SEM, FIG. 1
From the text: A commercially available electrospinning apparatus (HSP-30K-2 manufactured by Nippon Stabilizer Industry Co., Ltd.) was used, voltage (direct current of 15 kV) was applied between (the distance being 20 cm) a nozzle and an aluminum foil (manufactured by Mitsubishi Aluminum Company, Ltd.) on which a cotton mat (manufactured by Asahi Kasei Corporation) is placed attached to a collector of the apparatus and a 10 wt % ethanolic solution of polyvinylpyrrolidone (PVP) was sprayed at ambient temperature from the nozzle onto the cotton mat to form a matrix comprising a nano fiber of PVP on the surface of the cotton mat. A fiber diameter of the nano fiber of PVP constituting the matrix was measured by using a scanning electron microscope (SEM JSM-5400 manufactured by JOEL Ltd.) and found to be from 300 to 700 nm. The cotton mat where a matrix comprising a nano fiber of PVP was formed on the surface was attached onto a filter of a commercially available spray-drying apparatus (Buchi Mini Spray Drier B-290 manufactured by Nihon BUCHI K.K.) and a 1 wt % aqueous solution of creatine was spray-dried onto the matrix (outlet temperature of the nozzle: 180° C.; aspirator speed: 35%; pump speed: 5%) to give a cotton mat where a matrix comprising a nano fiber of PVP in which creatine particles were adhered on the surface was formed on the surface. As will be apparent from FIG. 1, the particle size of creatine adhered on the surface of the nano fiber of PVP was about 2 μm at the largest and many of the particles were in a size of from 100 nm to smaller than 1 μm.

[2] = Exposure of the cotton mat to air stream similar to human inspiration, SEM picture after exposure
Method: The cotton mat where the matrix comprising the nano fiber of PVP in which creatine particles were adhered on the surface was formed on the surface was exposed for 1 minute in air stream having the similar degree as human inspiration (velocity is 5 L/minute). A picture of the cotton mat after exposure taken under a scanning electron microscope (the same one as mentioned already) is shown in FIG. 2.

[3] = spray-dried onto PVP nano fiber matrix on cotton mat

Structure (SMILES)	solubility in ethanol (Solubility in ethanol)	particle size of creatine adhered on the surface of the nano fiber of PVP, at the largest ([1]; spray-dried from 1 wt % aqueous solution onto PVP nano fiber matrix on cotton mat)	particle size, many of the particles, lower limit [1, 3] [nm]	particle size, many of the particles, upper limit [1, 3]	stability of nano- to micron-size particles in air ([2]; adhered on PVP nano fiber matrix, no dispersing solvent)	detachment of particles adhered on the nano fiber of PVP ([2]; air stream 5 L/minute, 1 minute, SEM, FIG. 2)
O=c1c2ccccc2[se]n1-c1ccccc1 [Ebselen, 2-phenyl-1,2-benzoisoselenazol-3-(2H)-one]	hardly soluble					
CN(CC(=O)O)C(=N)N [creatine]		about 2 μm	≥ 100	smaller than 1 μm	stably retained even in air	detached by air stream
